# Data: PubChem BioAssay (NCI)
#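 Step 1: Grow cells in 96-well plates. Step 2: Expose to compound for 48 hours at 5 concentrations. Step 3: Interpolate endpoints linearly; if unreached, use highest concentration. At the GI50, growth is halved. TGI: concentration producing complete growth inhibition.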
# Columns and labels:
# Test in all cases: NCI tumour cell line growth inhibition, 48 h
# TK-10 renal = test system: TK-10 renal
# DU-145 prostate = test system: DU-145 prostate
# SNB-75 CNS = test system: SNB-75 CNS
# T-47D breast = test system: T-47D breast
# KM12 colon = test system: KM12 colon
# SF-268 CNS = test system: SF-268 CNS
# SK-MEL-2 melanoma = test system: SK-MEL-2 melanoma
# SF-295 CNS = test system: SF-295 CNS
# MDA-MB-435 = test system: MDA-MB-435
# SR leukemia = test system: SR leukemia
# HOP-92 NSCLC = test system: HOP-92 NSCLC
# U251 CNS = test system: U251 CNS
# HL-60(TB) leukemia = test system: HL-60(TB) leukemia
# K-562 leukemia = test system: K-562 leukemia
# UACC-62 melanoma = test system: UACC-62 melanoma
# HS 578T breast = test system: HS 578T breast
# LOX IMVI melanoma = test system: LOX IMVI melanoma
# M14 melanoma = test system: M14 melanoma
# CAKI-1 renal = test system: CAKI-1 renal
# PC-3 prostate = test system: PC-3 prostate
# BT-549 breast = test system: BT-549 breast
# RPMI-8226 leukemia = test system: RPMI-8226 leukemia
# HCT-116 colon = test system: HCT-116 colon
# NCI-H226 lung = test system: NCI-H226 lung
# UACC-257 melanoma = test system: UACC-257 melanoma
# MOLT-4 leukemia = test system: MOLT-4 leukemia
# OVCAR-4 ovarian = test system: OVCAR-4 ovarian
# IGROV1 ovarian = test system: IGROV1 ovarian
# HOP-62 NSCLC = test system: HOP-62 NSCLC
# MDA-MB-231 breast = test system: MDA-MB-231 breast
# SK-OV-3 ovarian = test system: SK-OV-3 ovarian
# SN12C renal = test system: SN12C renal
# HCT-15 colon = test system: HCT-15 colon
# ACHN renal = test system: ACHN renal
# OVCAR-5 ovarian = test system: OVCAR-5 ovarian
# EKVX NSCLC = test system: EKVX NSCLC
# 786-0 renal = test system: 786-0 renal
# NCI-H460 lung = test system: NCI-H460 lung
# SNB-19 CNS = test system: SNB-19 CNS
# NCI/ADR-RES ovarian = test system: NCI/ADR-RES ovarian
# A549 NSCLC = test system: A549 NSCLC
# COLO 205 colon = test system: COLO 205 colon
# SW-620 colon = test system: SW-620 colon
# OVCAR-3 ovarian = test system: OVCAR-3 ovarian
# SK-MEL-5 melanoma = test system: SK-MEL-5 melanoma
# NCI-H522 lung = test system: NCI-H522 lung
# UO-31 renal = test system: UO-31 renal
smiles,measurement,setting,value
CC1=C(C(=O)Nc2ccc(Cl)c(Cl)c2)C(c2ccccc2Cl)NC(=S)N1 (centres undefined),GI50,TK-10 renal,10.1 µM
same,TGI,TK-10 renal,22.6 µM
same,GI50,DU-145 prostate,11.9 µM
same,TGI,DU-145 prostate,> 50 µM
same,GI50,SNB-75 CNS,5.48 µM
same,TGI,SNB-75 CNS,29.2 µM
same,GI50,T-47D breast,18.9 µM
same,TGI,T-47D breast,> 50 µM
same,GI50,KM12 colon,8.71 µM
same,TGI,KM12 colon,17.6 µM
same,GI50,SF-268 CNS,5.62 µM
same,TGI,SF-268 CNS,12.5 µM
same,GI50,SK-MEL-2 melanoma,14.6 µM
same,TGI,SK-MEL-2 melanoma,25.2 µM
same,GI50,SF-295 CNS,9.46 µM
same,TGI,SF-295 CNS,22 µM
same,GI50,MDA-MB-435,8.08 µM
same,TGI,MDA-MB-435,16.2 µM
same,GI50,SR leukemia,11.7 µM
same,TGI,SR leukemia,> 50 µM
same,GI50,HOP-92 NSCLC,1.15 µM
same,TGI,HOP-92 NSCLC,9.02 µM
same,GI50,U251 CNS,11.9 µM
same,TGI,U251 CNS,26.8 µM
same,GI50,HL-60(TB) leukemia,15.4 µM
same,TGI,HL-60(TB) leukemia,> 50 µM
same,GI50,K-562 leukemia,11 µM
same,TGI,K-562 leukemia,> 50 µM
same,GI50,UACC-62 melanoma,8.01 µM
same,TGI,UACC-62 melanoma,18.9 µM
same,GI50,HS 578T breast,6.38 µM
same,TGI,HS 578T breast,13.9 µM
same,GI50,LOX IMVI melanoma,> 50 µM
same,TGI,LOX IMVI melanoma,> 50 µM
same,GI50,M14 melanoma,11.6 µM
same,TGI,M14 melanoma,26.9 µM
same,GI50,CAKI-1 renal,9.85 µM
same,TGI,CAKI-1 renal,21.5 µM
same,GI50,PC-3 prostate,8.08 µM
same,TGI,PC-3 prostate,23.3 µM
same,GI50,BT-549 breast,39.4 µM
same,TGI,BT-549 breast,> 50 µM
same,GI50,RPMI-8226 leukemia,4.18 µM
same,TGI,RPMI-8226 leukemia,24 µM
same,GI50,HCT-116 colon,6.23 µM
same,TGI,HCT-116 colon,12.5 µM
same,GI50,NCI-H226 lung,10.1 µM
same,TGI,NCI-H226 lung,25.7 µM
same,GI50,UACC-257 melanoma,14.5 µM
same,TGI,UACC-257 melanoma,26.8 µM
same,GI50,MOLT-4 leukemia,8.92 µM
same,TGI,MOLT-4 leukemia,> 50 µM
same,GI50,OVCAR-4 ovarian,23.6 µM
same,TGI,OVCAR-4 ovarian,> 50 µM
same,GI50,IGROV1 ovarian,22.5 µM
same,TGI,IGROV1 ovarian,> 50 µM
same,GI50,HOP-62 NSCLC,12.4 µM
same,TGI,HOP-62 NSCLC,22.7 µM
same,GI50,MDA-MB-231 breast,7.15 µM
same,TGI,MDA-MB-231 breast,17.3 µM
same,GI50,SK-OV-3 ovarian,12.5 µM
same,TGI,SK-OV-3 ovarian,> 50 µM
same,GI50,SN12C renal,8.53 µM
same,TGI,SN12C renal,15.8 µM
same,GI50,HCT-15 colon,7.8 µM
same,TGI,HCT-15 colon,19 µM
same,GI50,ACHN renal,10.9 µM
same,TGI,ACHN renal,25.2 µM
same,GI50,OVCAR-5 ovarian,13.6 µM
same,TGI,OVCAR-5 ovarian,41.9 µM
same,GI50,EKVX NSCLC,9.09 µM
same,TGI,EKVX NSCLC,19 µM
same,GI50,786-0 renal,10.2 µM
same,TGI,786-0 renal,20 µM
same,GI50,NCI-H460 lung,6.58 µM
same,TGI,NCI-H460 lung,13.7 µM
same,GI50,SNB-19 CNS,0.695 µM
same,TGI,SNB-19 CNS,12.8 µM
same,GI50,NCI/ADR-RES ovarian,9.62 µM
same,TGI,NCI/ADR-RES ovarian,19.7 µM
same,GI50,A549 NSCLC,24.1 µM
same,TGI,A549 NSCLC,> 50 µM
same,GI50,COLO 205 colon,8.01 µM
same,TGI,COLO 205 colon,22.2 µM
same,GI50,SW-620 colon,10.8 µM
same,TGI,SW-620 colon,24.4 µM
same,GI50,OVCAR-3 ovarian,10.5 µM
same,TGI,OVCAR-3 ovarian,20.6 µM
same,GI50,SK-MEL-5 melanoma,7.96 µM
same,TGI,SK-MEL-5 melanoma,15.1 µM
same,GI50,NCI-H522 lung,13.6 µM
same,TGI,NCI-H522 lung,24.9 µM
same,GI50,UO-31 renal,8.06 µM
same,TGI,UO-31 renal,16.7 µM
